Experimental data from patent publication US20150150822A1, “NOVEL CORE-SHELL NANOPARTICLES FOR ORAL DRUG DELIVERY” (South Dakota State University, priority 2013, published 2015).

How the values were obtained:
[1] = Permeability and efflux ratio of saquinavir across Caco-2 cell monolayers; type: in vitro ADME; conditions: human, pH 7.4, Caco-2 monolayer
Procedure: Caco-2 cells (ATCC, Manassas, Va.) were kindly provided by Dr. Gunaje Jayarama (Department of Pharmaceutical Sciences, South Dakota State University, Brookings, S. Dak.) at passage #4. Cells were seeded at 1×10^6 cells onto […]®polyester filter membranes (pore size 0.4 um, growth area 4.67 cm^2) in 6 welled sterile plates ([…]®, Corning Costar Corp., Cambridge, Mass.). The cells were grown in DMEM (4.5 g/L glucose) medium supplemented with 20% FBS, 1% non-essential amino acids, I % L-glutamine, streptomycin (100 μg/ml) and penicillin (100 IU/ml). The cultures were maintained in an atmosphere of 5% CO2 and 95% air, and 95% relative humidity at 37° C. (CO2 incubator, Galaxy 170S). The growth medium was changed every day in the first two weeks followed by three times a week until time of use. When reaching confluency, cells were trypsinized and passage numbers 25-35 were used in the experiments. The cells were allowed to differentiate in the […]® filter membrane during 3 weeks in complete growth medium.
The permeability of saquinavir and saquinavir loaded ZLF nanoparticles were studied across Caco-2 cell monolayers in an absorptive direction apical to basolateral (AP-BL) or secretory direction basolateral to apical (BL-AP). Before the permeability experiments, the cell monolayers were rinsed twice with HBSS, pH 7.4, and equilibrated under experimental conditions for 20 min. Then, the apical fluid was replaced by 1.5 ml of experimental solution. Transepithelial electrical resistance (TEER) was measured using an EVOM meter (World Precision Instruments, Inc., Sarasota, Fla.) to ensure monolayer confluence and integrity. TEER was calculated as follows: […]
Where R(Ω) is the measured resistance and A is the surface area (cm^2). […] Results are expressed as apparent permeability coefficient (Papp), calculated according to: […]
Saquinavir content after extraction was analyzed in the samples using the HPLC as recited herein. […]
The ratio of effective permeability for saquinavir or efflux ratio was calculated as follows: […]

[2] = background statement; cited from earlier work
[3] = cited from earlier work

Structure (SMILES)	efflux ratio at 3 h, 20 μM ([1]; Papp B-A/Papp A-B)	Papp A→B at 3 h, 20 μM ([1]; apical to basolateral, free saquinavir at 20 μM)	Papp B→A at 3 h, 20 μM ([1]; basolateral to apical, free saquinavir at 20 μM)	bioavailability [2]	Log P [3]	solubility in water [3]
CC(C)(C)NC(=O)[C@@H]1C[C@@H]2CCCC[C@@H]2CN1C[C@@H](O)[C@H](Cc1ccccc1)NC(=O)[C@H](CC(N)=O)NC(=O)c1ccc2ccccc2n1 [Saquinavir]	16.7	0.85 ± 0.21 ×10⁻⁶ cm/s	14.2 ± 5.3 ×10⁻⁶ cm/s	0.7-4%		
CC1=C(/C=C/C(C)=C/C=C/C(C)=C/CO)C(C)(C)CCC1 [Retinol]					6.2	practically insoluble in water
